Test results taken from US20250144094A1 (Erasca, Inc., priority 2021, published 2025).

Biological target: Recombinant human ULK1 (1-649) (Homo sapiens (Human), UniProt O75385)
Experiment: ULK1 ADP Glo kinase activity assay, new method (ULKtide peptide substrate)
Settings: 25° C., 40 minutes, read-out: ULK1 biochemical IC50
In short: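 Kinase activity was read as ADP production (ADP-Glo, luminescence 30 min after detection reagent) following a 40-min, 25 °C reaction of Sf9-expressed GST-ULK1 (1-649) with ULKtide substrate and ATP. Compounds ran as 12-point series starting at 10 μM; four-parameter curve fitting versus DMSO wells gave IC50.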

Chain of Recombinant human ULK1 (1-649) (O75385 1-649): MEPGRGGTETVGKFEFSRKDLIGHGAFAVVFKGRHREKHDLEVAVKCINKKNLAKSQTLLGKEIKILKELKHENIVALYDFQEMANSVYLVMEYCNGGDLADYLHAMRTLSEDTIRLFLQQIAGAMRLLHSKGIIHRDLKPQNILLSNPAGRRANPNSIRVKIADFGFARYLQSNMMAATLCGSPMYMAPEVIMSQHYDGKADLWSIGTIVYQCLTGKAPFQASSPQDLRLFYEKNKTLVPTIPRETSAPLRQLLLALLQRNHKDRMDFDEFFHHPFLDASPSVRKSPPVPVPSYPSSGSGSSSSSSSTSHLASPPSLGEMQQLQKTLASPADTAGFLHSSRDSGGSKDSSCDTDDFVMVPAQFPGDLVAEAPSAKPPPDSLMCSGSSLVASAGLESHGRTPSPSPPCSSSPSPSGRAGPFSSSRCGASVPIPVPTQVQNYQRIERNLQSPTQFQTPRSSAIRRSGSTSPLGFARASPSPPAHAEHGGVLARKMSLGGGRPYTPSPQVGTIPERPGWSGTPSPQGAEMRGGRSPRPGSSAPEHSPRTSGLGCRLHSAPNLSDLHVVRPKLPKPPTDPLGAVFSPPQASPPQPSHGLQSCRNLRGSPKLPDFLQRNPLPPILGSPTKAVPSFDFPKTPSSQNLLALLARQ

| IC50 [nM] | Compound |
| --- | --- |
| ≤ 5 | CN1CCS(=O)(=O)c2cc(-c3nc(Nc4cc5c(cc4Cl)CNC5)ncc3C(F)(F)F)sc2C1=O [Example 164, 7-(2-((6-chloroisoindolin-5-yl)amino)-5-(trifluoromethyl)pyrimidin-4-yl)-4-methyl-3,4-dihydrothieno[2,3-f][1,4]thiazepin-5(2H)-one 1,1-dioxide] |
| ≤ 5 | CCc1cc2c(cc1Nc1ncc(C(F)(F)F)c(-c3cc4c(s3)C(=O)N(CC(F)(F)F)CCS4(=O)=O)n1)CNCC2 [Example 258, 7-(2-((6-ethyl-1,2,3,4-tetrahydroisoquinolin-7-yl)amino)-5-(trifluoromethyl)pyrimidin-4-yl)-4-(2,2,2-trifluoroethyl)-3,4-dihydrothieno[2,3-f][1,4]thiazepin-5(2H)-one 1,1-dioxide] |
| ≤ 5 | CN1CCS(=O)(=O)c2cc(-c3nc(Nc4ccc(N5CCN(CC6COC6)CC5)cc4Cl)ncc3C(F)(F)F)sc2C1=O [Example 217, 7-(2-((2-chloro-4-(4-(oxetan-3-ylmethyl)piperazin-1-yl)phenyl)amino)-5-(trifluoromethyl)pyrimidin-4-yl)-4-methyl-3,4-dihydrothieno[2,3-f][1,4]thiazepin-5(2H)-one 1,1-dioxide] |
| ≤ 5 | CN1CCS(=O)(=O)c2cc(-c3nc(Nc4cc5c(cc4Cl)CNCC5)ncc3C(F)(F)F)sc2C1=O [Example 156, 7-(2-((7-chloro-1,2,3,4-tetrahydroisoquinolin-6-yl)amino)-5-(trifluoromethyl)pyrimidin-4-yl)-4-methyl-3,4-dihydrothieno[2,3-f][1,4]thiazepin-5(2H)-one 1,1-dioxide] |
| 5 to 10 | O=C1c2sc(-c3nc(Nc4cc5c(cc4C4CC4)CN(CCOC(F)(F)F)CC5)ncc3C(F)(F)F)cc2S(=O)(=O)CCN1C1COC1 [Example 312, 7-(2-((7-cyclopropyl-2-(2-(trifluoromethoxy)ethyl)-1,2,3,4-tetrahydroisoquinolin-6-yl)amino)-5-(trifluoromethyl)pyrimidin-4-yl)-4-(oxetan-3-yl)-3,4-dihydrothieno[2,3-f][1,4]thiazepin-5(2H)-one 1,1-dioxide] |
| ≤ 5 | CN1CCS(=O)(=O)c2cc(-c3nc(Nc4cc5c(cc4C4CC4)CCNC5)ncc3C(F)(F)F)sc2C1=O [Example 231, 7-(2-((6-cyclopropyl-1,2,3,4-tetrahydroisoquinolin-7-yl)amino)-5-(trifluoromethyl)pyrimidin-4-yl)-4-methyl-3,4-dihydrothieno[2,3-f][1,4]thiazepin-5(2H)-one 1,1-dioxide] |
| ≤ 5 | Cc1cnc(Nc2cc3c(cc2C2CC2)CNCC3)nc1-c1cc2c(s1)C(=O)N(C1CC1)CCS2(=O)=O [Example 260, 4-cyclopropyl-7-(2-((7-cyclopropyl-1,2,3,4-tetrahydroisoquinolin-6-yl)amino)-5-methylpyrimidin-4-yl)-3,4-dihydrothieno[2,3-f][1,4]thiazepin-5(2H)-one 1,1-dioxide] |
| ≤ 5 | CN1CCS(=O)(=O)c2cc(-c3nc(Nc4cc5c(cc4Cl)CNCC5)ncc3C(F)(F)F)sc2S1(=O)=O [Example 302, 7-(2-((7-chloro-1,2,3,4-tetrahydroisoquinolin-6-yl)amino)-5-(trifluoromethyl)pyrimidin-4-yl)-2-methyl-3,4-dihydro-2H-thieno[3,2-f][1,5,2]dithiazepine 1,1,5,5-tetraoxide] |
| ≤ 5 | C[C@@H]1CN(c2ccc(Nc3ncc(C(F)(F)F)c(-c4cc5c(s4)C(=O)N(C4CC4)CCS5(=O)=O)n3)c(C3CC3)c2)C[C@H](C)N1C [Example 343, 4-Cyclopropyl-7-(2-((2-cyclopropyl-4-((3S,5R)-3,4,5-trimethylpiperazin-1-yl)phenyl)amino)-5-(trifluoromethyl)pyrimidin-4-yl)-3,4-dihydrothieno[2,3-f][1,4]thiazepin-5(2H)-one 1,1-dioxide] |
| ≤ 5 | CCN1CCc2cc(Nc3ncc(C(F)(F)F)c(-c4cc5c(s4)C(=O)N(C4COC4)CCS5(=O)=O)n3)c(C3CC3)cc2C1 [Example 244, 7-(2-((7-cyclopropyl-2-ethyl-1,2,3,4-tetrahydroisoquinolin-6-yl)amino)-5-(trifluoromethyl)pyrimidin-4-yl)-4-(oxetan-3-yl)-3,4-dihydrothieno[2,3-f][1,4]thiazepin-5(2H)-one 1,1-dioxide] |
| ≤ 5 | O=C1c2sc(-c3nc(Nc4cc5c(cc4C4CC4)CN(C4CC4)CC5)ncc3C(F)(F)F)cc2S(=O)(=O)CCN1C1COC1 [Example 301, 7-(2-((2,7-dicyclopropyl-1,2,3,4-tetrahydroisoquinolin-6-yl)amino)-5-(trifluoromethyl)pyrimidin-4-yl)-4-(oxetan-3-yl)-3,4-dihydrothieno[2,3-f][1,4]thiazepin-5(2H)-one 1,1-dioxide] |
| ≤ 5 | O=C1c2sc(-c3nc(Nc4cc5c(cc4C4CC4)CCNC5)ncc3C(F)(F)F)cc2S(=O)(=O)CCN1C1COC1 [Example 270, 7-(2-((6-cyclopropyl-1,2,3,4-tetrahydroisoquinolin-7-yl)amino)-5-(trifluoromethyl)pyrimidin-4-yl)-4-(oxetan-3-yl)-3,4-dihydrothieno[2,3-f][1,4]thiazepin-5(2H)-one 1,1-dioxide] |
| 10 to 50 | N#CCN1CCc2cc(Nc3ncc(C(F)(F)F)c(-c4cc5c(s4)C(=O)N(C4CC4)CCS5(=O)=O)n3)c(C3CC3)cc2C1 [Example 276, 2-(7-cyclopropyl-6-((4-(4-cyclopropyl-1,1-dioxido-5-oxo-2,3,4,5-tetrahydrothieno[2,3-f][1,4]thiazepin-7-yl)-5-(trifluoromethyl)pyrimidin-2-yl)amino)-3,4-dihydroisoquinolin-2(1H)-yl)acetonitrile] |
| 5 to 10 | O=C1c2sc(-c3nc(Nc4cc5c(cc4C4CC4)CN(C4COC4)CC5)ncc3C(F)(F)F)cc2S(=O)(=O)CCN1C1CC1 [Example 289, 4-cyclopropyl-7-(2-((7-cyclopropyl-2-(oxetan-3-yl)-1,2,3,4-tetrahydroisoquinolin-6-yl)amino)-5-(trifluoromethyl)pyrimidin-4-yl)-3,4-dihydrothieno[2,3-f][1,4]thiazepin-5(2H)-one 1,1-dioxide] |
| ≤ 5 | O=C1c2sc(-c3nc(Nc4ccc(N5CCNCC5)cc4C4CC4)ncc3C(F)(F)F)cc2S(=O)(=O)CCN1C1CC1 [Example 239, 4-cyclopropyl-7-(2-((2-cyclopropyl-4-(piperazin-1-yl)phenyl)amino)-5-(trifluoromethyl)pyrimidin-4-yl)-3,4-dihydrothieno[2,3-f][1,4]thiazepin-5(2H)-one 1,1-dioxide] |
| ≤ 5 | CC1(CN2CCc3cc(Nc4ncc(C(F)(F)F)c(-c5cc6c(s5)C(=O)N(C5COC5)CCS6(=O)=O)n4)c(C4CC4)cc3C2)COC1 [Example 286, 7-(2-((7-cyclopropyl-2-((3-methyloxetan-3-yl)methyl)-1,2,3,4-tetrahydroisoquinolin-6-yl)amino)-5-(trifluoromethyl)pyrimidin-4-yl)-4-(oxetan-3-yl)-3,4-dihydrothieno[2,3-f][1,4]thiazepin-5(2H)-one 1,1-dioxide] |
| ≤ 5 | C[C@@H]1CN(c2ccc(Nc3ncc(C(F)(F)F)c(-c4cc5c(s4)C(=O)N(C4COC4)CCS5(=O)=O)n3)c(C3CC3)c2)CCN1 [Example 315, (R)-7-(2-((2-cyclopropyl-4-(3-methylpiperazin-1-yl)phenyl)amino)-5-(trifluoromethyl)pyrimidin-4-yl)-4-(oxetan-3-yl)-3,4-dihydrothieno[2,3-f][1,4]thiazepin-5(2H)-one 1,1-dioxide] |
| ≤ 5 | CN1CCc2cc(Nc3ncc(C(F)(F)F)c(-c4cc5c(s4)C(=O)N(C)CCS5(=O)=O)n3)c(F)cc2C1 [Example 140, 7-(2-((7-fluoro-2-methyl-1,2,3,4-tetrahydroisoquinolin-6-yl)amino)-5-(trifluoromethyl)pyrimidin-4-yl)-4-methyl-3,4-dihydrothieno[2,3-f][1,4]thiazepin-5(2H)-one 1,1-dioxide] |
| ≤ 5 | O=C1c2sc(-c3nc(Nc4cc5c(cc4C4CC4)CN(CCF)CC5)ncc3C(F)(F)F)cc2S(=O)(=O)CCN1C1CC1 [Example 249, 4-cyclopropyl-7-(2-((7-cyclopropyl-2-(2-fluoroethyl)-1,2,3,4-tetrahydroisoquinolin-6-yl)amino)-5-(trifluoromethyl)pyrimidin-4-yl)-3,4-dihydrothieno[2,3-f][1,4]thiazepin-5(2H)-one 1,1-dioxide] |
| ≤ 5 | CCc1cc(N2C[C@@H](C)N(C)[C@@H](C)C2)ccc1Nc1ncc(C(F)(F)F)c(-c2cc3c(s2)C(=O)N(C2CC2)CCS3(=O)=O)n1 [Example 367, 4-cyclopropyl-7-(2-((2-ethyl-4-((3S,5R)-3,4,5-trimethylpiperazin-1-yl)phenyl)amino)-5-(trifluoromethyl)pyrimidin-4-yl)-3,4-dihydrothieno[2,3-f][1,4]thiazepin-5(2H)-one 1,1-dioxide] |
| ≤ 5 | CN1C[C@H]2C[C@@H]1CN2c1ccc(Nc2ncc(C(F)(F)F)c(-c3cc4c(s3)C(=O)N(C3COC3)CCS4(=O)=O)n2)c(C2CC2)c1 [Example 334, 7-(2-((2-cyclopropyl-4-((1R,4R)-5-methyl-2,5-diazabicyclo[2.2.1]heptan-2-yl)phenyl)amino)-5-(trifluoromethyl)pyrimidin-4-yl)-4-(oxetan-3-yl)-3,4-dihydrothieno[2,3-f][1,4]thiazepin-5(2H)-one 1,1-dioxide] |
| ≤ 5 | C[C@@H]1CN(c2ccc(Nc3ncc(C(F)(F)F)c(-c4cc5c(s4)C(=O)N(C4COC4)CCS5(=O)=O)n3)c(C3CC3)n2)CCN1 [Example 375, (R)-7-(2-((2-cyclopropyl-6-(3-methylpiperazin-1-yl)pyridin-3-yl)amino)-5-(trifluoromethyl)pyrimidin-4-yl)-4-(oxetan-3-yl)-3,4-dihydrothieno[2,3-f][1,4]thiazepin-5(2H)-one 1,1-dioxide] |

| Compound | IC50 [nM] |
| --- | --- |
| O=C1c2sc(-c3nc(Nc4ccc(N5C[C@H]6CC[C@@H](C5)N6)cc4C4CC4)ncc3C(F)(F)F)cc2S(=O)(=O)CCN1C1CC1 [Example 307, 7-(2-((4-((1R,5S)-3,8-diazabicyclo[3.2.1]octan-3-yl)-2-cyclopropylphenyl)amino)-5-(trifluoromethyl)pyrimidin-4-yl)-4-cyclopropyl-3,4-dihydrothieno[2,3-f][1,4]thiazepin-5(2H)-one 1,1-dioxide] | ≤ 5 |
